In this experiment the test system is BDF1 mice, B16 melanoma s.c., survival/tumor T/C. Put plainly: NCI In Vivo Anticancer Drug Screen. Data for tumor model B16 Melanoma (subcutaneous) in B6D2F1 (BDF1) mice. On the procedure:
The antitumor activity of compounds was measured in mice bearing transplantable tumors. Survival or tumor size were measured and the results are expressed as the measurement made in the treated group (T) divided by the measurement made in the vehicle treated control group (C). The tumor model used in this assay is B16 Melanoma (subcutaneous) in B6D2F1 (BDF1) mice

Where [1] appears, read: endpoint: median survival time, dose: 64.0 mg/kg/injection, schedule: Q01DX009 (ip), vehicle: saline, higher = longer survival.

“And” between values parts separate entries of the source, which are not always exact repeats. Equal values may be shown once. Inconclusive results are not listed.

As for `C[C@]12C=CC(=O)C=C1CC[C@@H]1[C@@H]2C(=O)C[C@@]2(C)[C@H]1CC[C@]2(O)C(=O)CO`, the T/C is 95 % of control and 123 % of control (endpoint: median survival time, dose: 50.0 mg/kg/injection, schedule: Q01DX009 (ip), vehicle: Klucel (hydroxypropylcellulose) (HPC), higher = longer survival); 124 % of control (endpoint: median survival time, dose: 50.0 mg/kg/injection, schedule: Q01DX009 (ip), vehicle: saline with Tween-80, higher = longer survival); 116 % of control (endpoint: median survival time, dose: 50.0 mg/kg/injection, schedule: Q01DX009 (ip), vehicle: saline, higher = longer survival); 151 % of control (endpoint: median survival time, dose: 100.0 mg/kg/injection, schedule: Q01DX009 (ip), vehicle: saline with Tween-80, higher = longer survival); 100 % of control (endpoint: median survival time, dose: 100.0 mg/kg/injection, schedule: Q01DX009 (ip), vehicle: saline, higher = longer survival); 157 % of control and 168 % of control (endpoint: median survival time, dose: 200.0 mg/kg/injection, schedule: Q01DX009 (ip), vehicle: saline with Tween-80, higher = longer survival). The T/C is, setting by setting: (endpoint: median survival time, dose: 400.0 mg/kg/injection, schedule: Q01DX009 (ip), vehicle: saline with Tween-80, higher = longer survival) 159 % of control; (endpoint: median tumor weight (est.), dose: 50.0 mg/kg/injection, schedule: Q01DX009 (ip), vehicle: Klucel (hydroxypropylcellulose) (HPC), higher = larger tumour) 12 % of control and 30 % of control; (endpoint: median tumor weight (est.), dose: 50.0 mg/kg/injection, schedule: Q01DX009 (ip), vehicle: saline with Tween-80, higher = larger tumour) 26 % of control; (endpoint: median tumor weight (est.), dose: 100.0 mg/kg/injection, schedule: Q01DX009 (ip), vehicle: Klucel (hydroxypropylcellulose) (HPC), higher = larger tumour) 37 % of control; (endpoint: median tumor weight (est.), dose: 100.0 mg/kg/injection, schedule: Q01DX009 (ip), vehicle: saline with Tween-80, higher = larger tumour) 41 % of control; (endpoint: median tumor weight (est.), dose: 200.0 mg/kg/injection, schedule: Q01DX009 (ip), vehicle: Klucel (hydroxypropylcellulose) (HPC), higher = larger tumour) 22 % of control. Moreover, under “endpoint: median tumor weight (est.), dose: 200.0 mg/kg/injection, schedule: Q01DX009 (ip), vehicle: saline with Tween-80, higher = larger tumour”, the T/C is 12 % of control.

Turning to `O=[N+]([O-])O.[Ga]`, the T/C is 109 % of control (endpoint: median survival time, dose: 4.0 mg/kg/injection, schedule: Q01DX009 (ip), vehicle: saline, higher = longer survival); 91 % of control (endpoint: median survival time, dose: 16.0 mg/kg/injection, schedule: Q01DX009 (ip), vehicle: saline, higher = longer survival); 86 % of control (endpoint: median survival time, dose: 32.0 mg/kg/injection, schedule: Q01DX009 (ip), vehicle: saline, higher = longer survival); 99 % of control (endpoint: median survival time, dose: 40.0 mg/kg/injection, schedule: Q01DX009 (ip), vehicle: saline, higher = longer survival); 95 % of control under setting [1]; 104 % of control (endpoint: median survival time, dose: 90.0 mg/kg/injection, schedule: Q01DX009 (ip), vehicle: saline, higher = longer survival). The T/C is 99 % of control (endpoint: median survival time, dose: 200.0 mg/kg/injection, schedule: Q04DX003 (ip), vehicle: saline, higher = longer survival); 100 % of control (endpoint: median survival time, dose: 400.0 mg/kg/injection, schedule: Q01DX001 (ip), vehicle: saline, higher = longer survival); 100 % of control (endpoint: median survival time, dose: 600.0 mg/kg/injection, schedule: Q01DX001 (ip), vehicle: saline, higher = longer survival).

Take `CCCCNCCCNCCCNC(=O)c1csc(-c2csc(CCNC(=O)C(NC(=O)C(C)C(O)C(C)NC(=O)C(NC(=O)c3nc(C(CC(N)=O)NCC(N)C(N)=O)nc(N)c3C)C(OC3OC(CO)C(O)C(O)C3OC3OC(CO)C(O)C(OC(N)=O)C3O)c3cnc[nH]3)C(C)O)n2)n1` (stereo not given): the T/C by setting is: (endpoint: median survival time, dose: 0.31 mg/kg/injection, schedule: Q01DX009 (ip), vehicle: water, higher = longer survival) 86 % of control; (endpoint: median survival time, dose: 0.62 mg/kg/injection, schedule: Q01DX009 (ip), vehicle: water, higher = longer survival) 154 % of control; (endpoint: median survival time, dose: 1.25 mg/kg/injection, schedule: Q01DX009 (ip), vehicle: water, higher = longer survival) 120 % of control; (endpoint: median survival time, dose: 2.5 mg/kg/injection, schedule: Q01DX009 (ip), vehicle: water, higher = longer survival) 122 % of control; (endpoint: median survival time, dose: 5.0 mg/kg/injection, schedule: Q01DX009 (ip), vehicle: water, higher = longer survival) 158 % of control.

Turning to `CCCCCc1cc(O)c2c(c1)OC(C)(C)c1ccc(C)cc1-2`, the T/C was 113 % of control under setting [1]; 98 % of control (endpoint: median survival time, dose: 128.0 mg/kg/injection, schedule: Q01DX009 (ip), vehicle: saline, higher = longer survival); 117 % of control (endpoint: median survival time, dose: 256.0 mg/kg/injection, schedule: Q01DX009 (ip), vehicle: saline, higher = longer survival); 98 % of control (endpoint: median survival time, dose: 512.0 mg/kg/injection, schedule: Q01DX009 (ip), vehicle: saline, higher = longer survival).

As to `CCOc1ccc2nc(S(N)(=O)=O)sc2c1`, the T/C (endpoint: median survival time, dose: 3.75 mg/kg/injection, schedule: Q01DX009 (ip), vehicle: saline, higher = longer survival) was 121 % of control; the T/C (endpoint: median survival time, dose: 7.5 mg/kg/injection, schedule: Q01DX009 (ip), vehicle: saline, higher = longer survival) is 123 % of control; the T/C (endpoint: median survival time, dose: 15.0 mg/kg/injection, schedule: Q01DX009 (ip), vehicle: saline, higher = longer survival) was 121 % of control; the T/C (endpoint: median survival time, dose: 30.0 mg/kg/injection, schedule: Q01DX009 (ip), vehicle: saline, higher = longer survival) is 95 % of control.

For `O=C(O)CCCc1ccc(N(CCCl)CCCl)cc1`, the T/C runs as follows: (endpoint: median survival time, dose: 1.5 mg/kg/injection, schedule: Q01DX009 (ip), vehicle: Klucel (hydroxypropylcellulose) (HPC), higher = longer survival) 111 % of control; (endpoint: median survival time, dose: 3.0 mg/kg/injection, schedule: Q01DX009 (ip), vehicle: Klucel (hydroxypropylcellulose) (HPC), higher = longer survival) 105 % of control; (endpoint: median survival time, dose: 4.0 mg/kg/injection, schedule: Q01DX009 (ip), vehicle: Klucel (hydroxypropylcellulose) (HPC), higher = longer survival) 121 % of control; (endpoint: median survival time, dose: 6.0 mg/kg/injection, schedule: Q01DX009 (ip), vehicle: Klucel (hydroxypropylcellulose) (HPC), higher = longer survival) 101 % of control; (endpoint: median survival time, dose: 8.0 mg/kg/injection, schedule: Q01DX009 (ip), vehicle: Klucel (hydroxypropylcellulose) (HPC), higher = longer survival) 102 % of control; (endpoint: median survival time, dose: 12.0 mg/kg/injection, schedule: Q01DX009 (ip), vehicle: Klucel (hydroxypropylcellulose) (HPC), higher = longer survival) 97 % of control. Moreover, the T/C was 61 % of control (endpoint: median tumor weight (est.), dose: 4.0 mg/kg/injection, schedule: Q01DX009 (ip), vehicle: saline with Tween-80, higher = larger tumour) and 25 % of control (endpoint: median tumor weight (est.), dose: 8.0 mg/kg/injection, schedule: Q01DX009 (ip), vehicle: saline with Tween-80, higher = larger tumour).

On to `COc1cccc2c1C(=O)c1c(O)c3c(c(O)c1C2=O)C[C@@](O)(C(=O)COC(=O)Cc1cccc2ccccc12)C[C@@H]3OC1CC(N)C(O)C(C)O1` (stereo not given in full), for which the T/C is, setting by setting: (endpoint: median survival time, dose: 1.0 mg/kg/injection, schedule: Q01DX009 (ip), vehicle: saline with Tween-80, higher = longer survival) 111 % of control; (endpoint: median survival time, dose: 2.0 mg/kg/injection, schedule: Q01DX009 (ip), vehicle: saline with Tween-80, higher = longer survival) 114 % of control; (endpoint: median survival time, dose: 4.0 mg/kg/injection, schedule: Q01DX009 (ip), vehicle: saline with Tween-80, higher = longer survival) 94 % of control.

As for `CC(C)[C@](O)(C(=O)OCC1=CC[N+]2([O-])CC[C@@H](O)[C@@H]12)[C@H](C)O` (stereo not given in full), the T/C (endpoint: median survival time, dose: 50.0 mg/kg/injection, schedule: Q01DX009 (ip), vehicle: water, higher = longer survival) is 95 % of control; the T/C (endpoint: median survival time, dose: 100.0 mg/kg/injection, schedule: Q01DX009 (ip), vehicle: water, higher = longer survival) is 106 % of control; the T/C (endpoint: median survival time, dose: 200.0 mg/kg/injection, schedule: Q01DX009 (ip), vehicle: water, higher = longer survival) is 103 % of control.

Take `CCC1(O)CC2CN(CCc3c([nH]c4ccccc34)C(C(=O)OC)(c3cc4c(cc3OC)N(C)C3C(O)(C(N)=O)C(O)C5(CC)C=CCN6CCC43C65)C2)C1` (stereo not given) (tested in a mixture with another compound): the T/C (endpoint: median survival time, dose: 1.8 mg/kg/injection, schedule: Q04DX003 (ip), vehicle: water, higher = longer survival) was 87 % of control.

Source of the values: PubChem BioAssay AID194 (DTP/NCI, 2004).
